Test system: not given
Assay: not given
Conditions: not given

| SMILES | melting point |
| --- | --- |
| Cc1c(-c2cnn(C)c2)sc2nc(N)[nH]c(=O)c12 | 335 to 345 °C |
| CCONC(=O)c1ccc(-c2cccc(CN(C)CCCc3ccccc3)c2)cn1.Cl (hydrate or solvate) | 50 to 55 °C |
| O=C(NO)c1cc(NS(=O)(=O)Cc2ccccc2)ccn1 | 187 to 192 °C |

Test system: influenza A virus A/Aichi/2/68 (H3N2)
Assay: Cytopathic effect (CPE) assay H3N2 in MDCK cells
Format: cell-based, influenza A virus (A/Aichi/2/68 (H3N2)); MDCK cells
Conditions: Influenza A virus, H3N2, MDCK; activity conc 50 (μM); read-out: CPE H3N2 reduction (%)
Procedure: A possible measure of the […] antiviral activity of the compounds having the formula I or II is the CPE assay disclosed herein. […] In this connection, the reduction in the virus-mediated cytopathic effect (CPE) upon treatment with the compounds was calculated as follows: The cell viability of infected-treated and uninfected-treated cells was determined using an ATP-based cell viability assay (Promega). The response in relative luminescent units (RLU) of infected-untreated samples was subtracted from the response (RLU) of the infected-treated samples and then normalized to the viability of the corresponding uninfected sample resulting in % CPE reduction.
The influenza A virus (IAV) was obtained from American Tissue Culture Collection (A/Aichi/2/68 (H3N2); VR-547). Virus stocks were prepared by propagation of virus on Mardin-Darby canine kidney (MDCK; ATCC CCL-34) cells and infectious titres of virus stocks were determined by the 50% tissue culture infective dose (TCID50) analysis as described in Reed, L. J., and H. Muench. 1938, Am. J. Hyg. 27:493-497.
MDCK cells were seeded in 96-well plates at 2×10^4 cells/well using DMEM/Ham's F-12 (1:1) medium containing 10% foetal bovine serum (FBS), 2 mM L-glutamine and 1% antibiotics (all from PAA). Until infection the cells were incubated for 5 hrs at 37° C., 5.0% CO2 to form a -80% confluent monolayer on the bottom of the well. Each test compound was dissolved in DMSO and generally tested at 25 μM and 250 μM. In those cases where the compounds were not soluble at that concentration they were tested at the highest soluble concentration. The compounds were diluted in infection medium (DMEM/Ham's F-12 (1:1) containing 5 μg/ml trypsin, and 1% antibiotics) for a final plate well DMSO concentration of 1%. The virus stock was diluted in infection medium (DMEM/Ham's F-12 (1:1) containing 5 μg/m1Trypsin, 1% DMSO, and 1% antibiotics) to a theoretical multiplicity of infection (M01) of 0.05.
After removal of the culture medium and one washing step with PBS, virus and compound were added together to the cells. In the wells used for cytotoxicity determination (i.e. in the absence of viral infection), no virus suspension was added. Instead, infection medium was added. Each treatment was conducted in two replicates. After incubation at 37° C., 5% CO2 for 48 hrs, each well was observed microscopically for apparent cytotoxicity, precipitate formation, or other notable abnormalities. Then, cell viability was determined using
CellTiter-Glo luminescent cell viability assay (Promega). The supernatant was removed carefully and 65 μl of the reconstituted reagent were added to each well and incubated with gentle shaking for 15 min at room temperature. Then, 60 μl of the solution was transferred to an opaque plate and luminescence (RLU) was measured using Synergy HT plate reader (Biotek).
Relative cell viability values of uninfected-treated versus uninfected-untreated cells were used to evaluate cytotoxicity of the compounds. Substances with a relative viability below 80% at the tested concentration were regarded as cytotoxic and retested at lower concentrations.
Reduction in the virus-mediated cytopathic effect (CPE) upon treatment with the compounds was calculated as follows: The response (RLU) of infected-untreated samples was subtracted from the response (RLU) of the infected-treated samples and then normalized to the viability of the corresponding uninfected sample resulting in % CPE reduction.

| SMILES | inhibition at 50 µM |
| --- | --- |
| O=C(NO)c1cc(NS(=O)(=O)Cc2ccc(Cl)cc2)ccn1 | -3.88% |
| O=C(NO)c1cc(NS(=O)(=O)Cc2cc(Cl)cc(Cl)c2)ccn1 | 9.3% |

Same assay, conditions: activity conc 2

| SMILES | CPE H3N2 reduction (%) |
| --- | --- |
| O=C(c1cc2ccccc2cn1)N(O)CCCc1ccccc1 | 4.4% |
| CC(C)(C)OC(=O)N1C=C(c2ccnc(C(=O)N(O)Cc3ccccc3)c2)CCC1 | 3.9% |
| COC1=CC=C(c2ccnc(C(=O)N(O)Cc3ccccc3)c2)CC1 | −2.5% |
| CC(C)(C)OC(=O)N1C2C=C(c3ccnc(C(=O)N(O)Cc4ccccc4)c3)CC1CC2 (centres unmarked) | −5.3% |
| O=C(c1cc(N2CCCCC2)ccn1)N(O)CCCc1ccccc1 | 7.7% |
| CC(C)c1cccc(-c2ccc(C(=O)N(O)CCc3ccccc3)nc2)c1 | 2.1% |

Same assay, conditions: activity conc 2.5

| SMILES | CPE H3N2 reduction (%) |
| --- | --- |
| Cc1ccc(-c2sc3nc(N)[nH]c(=O)c3c2C)cc1 [SAV-7585] | 28.9% |

Same assay, conditions: activity conc 5

| SMILES | CPE H3N2 reduction (%) |
| --- | --- |
| O=C(c1cc(N2CCCCC2)cc[n+]1[O-])N(O)Cc1ccccc1 | −1.83% |
| CN(Cc1ccccc1)c1ccnc(C(=O)N(O)Cc2ccccc2)c1 | 3.8% |
| Cl.O=C(NO)c1cc(N2CCCCC2)ccn1 | −4.1% |
| O=C(c1ccc(N2CCCCC2)cn1)N(O)Cc1ccccc1 | −3.4% |
| Cc1c(-c2cccc(C#N)c2)sc2nc(N)[nH]c(=O)c12 [SAV-7594] | 14.5% |
| Cc1c(-c2ccccc2)sc2nc(N)[nH]c(=O)c12 [SAV-7475] | 8.9% |
| O=C(c1cc(-c2ccc(Cl)c(Cl)c2)ccn1)N(O)Cc1ccccc1 | 8.1% |
| CN(c1ccnc(C(=O)NO)c1)S(=O)(=O)Cc1ccccc1 | −1.7% |
| NC(=O)c1ccc(-c2ccnc(C(=O)N(O)Cc3ccccc3)c2)cc1 | −2.5% |
| O=C(c1cc2ccccc2cn1)N(Cc1ccccc1)OCc1ccccc1 | 1.3% |

Same assay, conditions: activity conc 10

| SMILES | CPE H3N2 reduction (%) |
| --- | --- |
| O=C(c1cc(-c2ccccc2)ccn1)N(O)Cc1ccccc1 | −9.3% |

Same assay, conditions: activity conc 20

| SMILES | CPE H3N2 reduction (%) |
| --- | --- |
| CC(C)(C)OC(=O)N1CCC(c2ccnc(C(=O)N(O)Cc3ccccc3)c2)CC1 | 31.3% |
| Cl.O=C(NO)c1cc(NS(=O)(=O)Cc2cc(Cl)cc(Cl)c2)ccn1 | 28.9% |
| Cc1c(-c2cc(C#N)ccc2F)sc2nc(N)[nH]c(=O)c12 [SAV-7615] | 59.2% |
| Cc1c(-c2ccc(Cl)c(C#N)c2)sc2nc(N)[nH]c(=O)c12 [SAV-7602] | 67.9 1.7 35.1% |
| Cl.O=C(c1cc(N2CCC(F)(F)C2)ccn1)N(O)Cc1ccccc1 | 4.6% |
| CCONC(=O)c1ccc(-c2cccc(CN(C)CCCc3ccccc3)c2)cn1.Cl | 1.6% |

Same assay, conditions: activity conc 25

| SMILES | CPE H3N2 reduction (%) |
| --- | --- |
| Cc1c(Cc2ccccc2)sc2nc(N)[nH]c(=O)c12 [SAV-7521] | 64.7 6 33.6% |

Same assay, conditions: activity conc 50 (μM)

| SMILES | CPE H3N2 reduction (%) |
| --- | --- |
| O=C(c1cc(NS(=O)(=O)Cc2ccccc2)ccn1)N(O)Cc1ccccc1 | 6.2% |
| Cl.O=C(NO)c1cc(NS(=O)(=O)Cc2cccc(F)c2)ccn1 | −2.4% |
| Cl.Cl.O=C(c1cc(N2CCNCC2)ccn1)N(O)Cc1ccccc1 | −4.5% |
| Cc1c(-c2ccc(Cl)nc2)sc2nc(N)[nH]c(=O)c12 [SAV-7632] | 0.75 53% |
| Cl.O=C(c1cc(C2=CCCNC2)ccn1)N(O)Cc1ccccc1 | 9.5% |
| C[C@@H]1CN(c2ccnc(C(=O)N(O)Cc3ccccc3)c2)C[C@H](C)O1 | 10.5% |
| Cl.O=C(c1cc(NS(=O)(=O)Cc2cccc(F)c2)ccn1)N(O)Cc1ccccc1 | 9.6% |
| O=C(c1cc(N2CCC3(CC2)OCCO3)ccn1)N(O)Cc1ccccc1 | 9.5% |
| CN(C)C(=O)c1cccc(-c2ccnc(C(=O)N(O)Cc3ccccc3)c2)c1 | 5.3% |
| CCONC(=O)c1ccc2ccccc2n1 | −2.2% |
| O=C(NO)c1ccc(N2CCCC2)cn1 | −4.3% |
| O=C(c1cc(N2CCC(N3CCCCC3)CC2)ccn1)N(O)Cc1ccccc1 | 18.8% |
| Cc1c(-c2cccc(CN(C)C)c2)sc2nc(N)[nH]c(=O)c12 [SAV-7629] | 38.3% |
| Cc1c(-c2cccc(C#N)c2F)sc2nc(N)[nH]c(=O)c12 [SAV-7627] | 71.2% |
| CN(OCc1ccccc1)C(=O)c1ccc(-c2ccccc2)cn1 | −2.6% |
| CN1CCN(c2ccnc(C(=O)N(C)O)c2)CC1 | 2.6% |
| Cl.O=C(c1cc(C2CCNCC2)ccn1)N(O)Cc1ccccc1 | −1.4% |
| Nc1ccccc1NC(=O)c1ccc(C(=O)NO)nc1 | −5.53% |
| Cc1c(-c2ccc(F)cc2)sc2nc(N)[nH]c(=O)c12 [SAV-7601] | 69.2 1.1 44.3% |
| CCONC(=O)c1cccc(C)n1 | −2.1% |
| CCONC(=O)c1ccccn1 | 12.5% |
| Cl.O=C(c1cc(N2CCC(F)CC2)ccn1)N(O)Cc1ccccc1 | 34% |
| Cl.O=C(NO)c1cc(NS(=O)(=O)Cc2ccc(Cl)c(Cl)c2)ccn1 | 53.43% |
| COc1ccc2nc(C(=O)NOCc3ccccc3)ccc2c1 | −1.9% |
| Cl.O=C(NO)c1cc(NS(=O)(=O)Cc2ccc(F)cc2)ccn1 | −1.4% |
| O=C(NO)c1cc(N2CCOCC2)ccn1 | −7.1% |
| CN(C)CCNC(=O)c1cccc(-c2ccnc(C(=O)N(O)Cc3ccccc3)c2)c1 | 8.9% |
| O=C(NO)c1cc2ccccc2cn1 | 94.3% |
| Cc1c(-c2ccnc(Cl)c2F)sc2nc(N)[nH]c(=O)c12 [SAV-7633] | 63.1% |
| CCONC(=O)c1cc(N2CCOCC2)ccn1.Cl | 1.3% |

Molecular target: PB2 cap binding domain (CBD) of an avian H5N1 influenza virus (Influenza A virus, UniProt Q9Q0V1)
Assay: biochemical
Conditions: not given

Chain of PB2 cap binding domain (CBD) of an avian H5N1 influenza virus (Q9Q0V1 318-483 limits assumed): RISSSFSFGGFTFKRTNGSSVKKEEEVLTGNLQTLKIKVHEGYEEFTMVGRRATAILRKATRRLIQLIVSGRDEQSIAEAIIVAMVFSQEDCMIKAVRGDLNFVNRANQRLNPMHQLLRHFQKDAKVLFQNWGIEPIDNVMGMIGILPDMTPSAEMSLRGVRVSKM

| SMILES | Kd | Biacore Binding (RU) |
| --- | --- | --- |
| Nc1nc2sc(-c3ccccc3)c(Br)c2c(=O)[nH]1 [SAV-7631] | 0.86 µM |  |
| Cc1c(-c2cccc(F)c2)sc2nc(N)[nH]c(=O)c12 [SAV-7606] | 6 µM |  |
| Cc1c(-c2cccc(Cl)c2)sc2nc(N)[nH]c(=O)c12 [SAV-7580] |  | 21.2 89.8 11 8.9 RU |
| Cc1c(-c2ccccc2)sc2nc(NCCN(C)C)[nH]c(=O)c12 [SAV-7583] | 66 µM | 77.8 4.8 66 RU |
| Cc1c(-c2cnn(C)c2)sc2nc(N)[nH]c(=O)c12 [SAV-7603] | 4.2 µM |  |
| Cc1c(-c2ccccc2Cl)sc2nc(N)[nH]c(=O)c12 [SAV-7596] | 11 µM | 11 29.6 13.6 RU |

— US20160376286A1, “Pyrimidin-4-one derivatives and their use in the tratement, amelioration or prevention of a viral disease” (priority 2011, published 2016)
